Source: article PMC8405639, “2-Carba-lysophosphatidic acid is a novel β-lysophosphatidic acid analogue with high potential for lysophosphatidic acid receptor activation and autotaxin inhibition” (Scientific Reports, 2021)

Tests used:
[1] = test system: extracellular signal-regulated kinase (ERK) phosphorylation; assay: Western blot analysis of phosphorylated ERK in HeLa cells; format: cell-based; conditions: HeLa cells preincubated with 10 µM Ki16425 for 30 min
Procedure: Figure 3 Effects of 2-carba-lysophosphatidic acid (2carbaLPA) on the phosphorylation of the extracellular signal-regulated kinase (ERK) protein. HeLa cells were preincubated with 10 µM Ki16425 for 30 min at 37 °C and then incubated with 10 µM 2carbaLPA, lysophosphatidic acid (LPA) 18:1, or vehicle for 5 min at 37 °C. Protein levels of phosphorylated ERK, total ERK, and α-tubulin were determined by western blot analysis. The full-length blots are shown in the Supplementary Fig. S2.
HeLa cells were obtained from RIKEN RBC Cell Bank (Tsukuba, Japan). […] Cells were harvested using 0.125 M Tris–HCl (pH 6.8) supplemented with 4% sodium dodecyl sulphate (SDS), 20% glycerol, 10% 2-mercaptoethanol, and 0.01% bromophenol blue. Proteins were separated by SDS–polyacrylamide gel electrophoresis, and the proteins were transferred onto an Immobilon-P Transfer Membrane (Millipore, Burlington, MA, USA). The membrane was incubated with primary antibodies: anti-phospho-ERK (pERK), anti-ERK, and anti-tubulin (all at 1:1,000 dilution, Cell Signaling Technology, Danvers, MA, USA). Next, after washing, the membrane was treated with horseradish peroxidase-conjugated anti-rabbit IgG (1:1000 dilution; Cell Signaling Technology). Immunodetection was performed using an enhanced chemiluminescence system (EzWestLumi plus, ATTO Corporation, Tokyo, Japan) and ImageQuant LAS 4000 (GE healthcare, Buckinghamshire, UK).

hLPA1 = biological target: T1, hLPA1 (Homo sapiens, UniProt Q92633); assay: TGFα-shedding assay, LPA1; format: cell-based; conditions: 293A cells, AP-TGFα release
T1 construct: expressed in transfected cells; host or cells: 293A cells
Procedure: Figure 4 Agonistic activity of 2-carba-lysophosphatidic acid (2carbaLPA) and cyclic phosphatidic acid (cPA) analogues toward six lysophosphatidic acid (LPA) receptors. 293A cells expressing LPA receptors were stimulated with the indicated concentration of LPA, 2carbaLPA, and cPA analogues. Receptor-specific alkaline phosphatase-tagged transforming growth factor-α release was calculated by subtracting the responses in the empty vector-transfected cells from those in the receptor-expressing cells. Data are represented as standard error of the mean of three independent replicates.
293A cells (Life Technologies, Tokyo, Japan) were cultured in DMEM (Nissui Pharmaceutical, Tokyo, Japan) supplemented with 10% foetal calf serum (Gibco, Waltham, MA, USA) in an incubator at 37 °C and 5% CO2. This assay was conducted according to a modified version of a method described previously. To improve signal detection, cells for the analysis of LPA1, LPA2, LPA4, and LPA5 were transfected with Gα-chimeric proteins, whereas those for LPA4, LPA5, LPA6 analysis were treated with the LPA1–3 antagonist Ki16425. The cells were co-transfected with vectors-expressing human LPA1–6, alkaline phosphatase-tagged TGFα (AP-TGFα). As negative controls, cells transfected with an empty vector instead of the receptor-expressing vector were used. After 24 h, the cells were resuspended in Hank’s balanced salt solution (HBSS), seeded in 96-well plates, and stimulated with cPA analogues administered at tenfold concentration of the final concentration. The cPA analogues were diluted with HBSS, 0.01% protease and fatty acid-free BSA (SERVA Electrophoresis GmbH, Heidelberg, Germany). Cells for LPA4, LPA5, and LPA6 analysis were treated with Ki16425 (final concentration: 10 μM), 5 min before treatment with the cPA analogues. After incubation for 1 h at 37 °C, 80 µL of the supernatant was transferred to fresh 96-well plates. An equal volume of 1 mM p-NPP solution [120 mM Tris–HCl (pH 9.5), 40 mM NaCl, and 10 mM MgCl2] was added to both the supernatant and the cells. Alkaline phosphatase activity was calculated by measuring absorbance at 405 nm using the Cytation 3 plate reader (BioTek, Winooski, VT, USA).

[2] = cPA analogue stability in the 293A cell medium; format: in vitro ADME; conditions: 10 µM, 1 h, 37 °C, 293A (HEK) cell medium
Procedure: Supplementary Figure S3. Cyclic phosphatidic acid (cPA) analogue stability in the HEK cell medium. Each cPA analogue (final concentration: 10 µM) was incubated with the HEK cell medium for 1 h at 37 °C. The remaining cPA analogue was quantified using liquid chromatography with tandem mass spectrometry (LC-QqQ) and calculated based on the percentage (%) ratio of the final concentration after incubation to the initial concentration. Data are represented as mean ± standard deviation (n = 3 samples).
293A cells were prepared in Hank’s balanced salt solution (HBSS) in 96-well plates. […] After incubation for 1 h at 37 ℃, 80 µL of the supernatant was collected and mixed with 320 µL of acidic methanol, including LPA 17:0 and cPA 17:0 (final concentration: 0.2 µM each; Avanti Polar Lipids, Alabaster, AL, USA).

T1 sequence (Q92633 whole entry): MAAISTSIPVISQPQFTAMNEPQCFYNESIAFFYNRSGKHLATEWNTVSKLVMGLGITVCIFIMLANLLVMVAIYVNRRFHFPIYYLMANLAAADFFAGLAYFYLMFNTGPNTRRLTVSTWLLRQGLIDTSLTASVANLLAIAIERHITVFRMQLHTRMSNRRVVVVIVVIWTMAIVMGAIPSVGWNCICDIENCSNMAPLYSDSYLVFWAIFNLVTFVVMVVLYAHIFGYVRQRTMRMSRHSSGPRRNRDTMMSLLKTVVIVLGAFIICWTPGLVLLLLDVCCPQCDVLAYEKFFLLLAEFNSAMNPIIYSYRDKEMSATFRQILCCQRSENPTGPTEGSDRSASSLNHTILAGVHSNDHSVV

For `Cc1noc(-c2ccc(CSCCC(=O)O)cc2)c1NC(=O)OC(C)c1ccccc1Cl` (stereo not shown) [Ki16425], the “Effect on 2carbaLPA-induced ERK activation” value [1] was “inhibited”.
In the case of `CCCCCCCCC=CCCCCCCCC(=O)OCC(O)COP(=O)(O)O` (stereo not shown) [LPA 18:1, 1-Oleoyl-LPA], the EC50 (hLPA1; 1 h) is reported as 0.0114 µM, the Emax (hLPA1; read-out: Emax ± SEM hLPA1 (converted)) is reported as 26.9% and the “Compound remaining after incubation” value [2] is reported as “approximately 70%”.
